# Experimental data from patent US8334253B2, “Cosmetic and dermatological formulations of MNTF peptides” (Dermacare Neuroscience Institute, priority 2008, dated 2012).
# Tested on: hyaluronic acid levels in adult human dermal fibroblast (aHDF) conditioned media
# Assay: Hyaluronic acid in fibroblast-conditioned medium (HA-ELISA)
# Type: cell-based
# Details: positive control, 5 ng/ml, 96 h
# Source text: Hyaluronic acid (hyaluronan, HA), a naturally occurring carbohydrate polymer is a key component of connective, epithelial and neural tissues. HA participates in hydrodynamics, movement and proliferation of cells. This test was designed to determine whether a sample of palmitylated and non-palmitylated MNTF hexapeptide has an effect on hyaluronic acid levels in the adult human dermal fibroblast (aHDF) conditioned media.
# Adult HDF (facial, passage 2, Cell Applications, San Diego, Calif. cat.#106-05A lot#1392) were plated in high glucose phosphate-free DMEM supplemented with 5% cosmic serum from Hyclone, Utah) at 6,000 cells per well and test materials were added the following day. Test materials were: Pal-Hexapeptide (palmitylated SEQ ID NO:2 as a lyophilized powder labeled APC 341055, lot V08150A1, received from DermaCare Neuroscience Institute), type I sterile water (negative control) and basic fibroblast growth factor (bFGF, positive control). Pal-Hexapeptide was dissolved in water at 20 mg/ml. Final concentrations tested were: 400, 200, 100, 50 and 25 ug/ml for DNP and 5 ng/ml for bFGF (plate 507). After 96 h, cell culture conditioned media were collected and 100 ul aliquotes were used for the HA assay. HA assay was performed using Hyaluronan Enzyme-Linked Immunosorbent Assay Kit (HA-ELISA, cat. #K-1200) from Echelon (Salt Lake City, Utah). The HA output was measured by following the generation of a chromophoric reaction product in 96 well plate, with the use of a BioRad microplate reader at 410 nm and the effect of the test materials was determined using the formula: Absorbance 410 (sample)/Absorbance 410 (Zero HA)×100.
# Adult HDF (facial, passage 2, Cell Applications, San Diego, Calif. cat.#106-05A lot#1392) were plated in high glucose phosphate-free DMEM supplemented with 5% cosmic serum from Hyclone, Utah) at 6,000 cells per well and test materials were added the following day. Test materials were: hexapeptide (SEQ ID NO:2 (non-palmitylated), lyophilized powder lot #D294, received from DermaCare Neuroscience Institute), type I sterile water (negative control) and basic fibroblast growth factor (bFGF, positive control). Pal-Hexapeptide was dissolved in water at 20 mg/ml. Final concentrations tested were: 2000, 1000, 500 and 250 ug/ml for hexapeptide and 5 ng/ml for bFGF (plate 507). After 96 h, cell culture conditioned media were collected and 100 ul aliquotes were used for the HA assay. HA assay was performed using Hyaluronan Enzyme-Linked Immunosorbent Assay Kit (HA-ELISA, cat. #K-1200) from Echelon (Salt Lake City, Utah). The HA output was measured by following the generation of a chromophoric reaction product in 96 well plate, with the use of a BioRad microplate reader at 410 nm and the effect of the test materials was determined using the formula: Absorbance 410 (sample)/Absorbance 410 (Zero HA)×100.
substance,measurement,value
"basic fibroblast growth factor [bFGF, reference compound]",stimulation of hyaluronic acid in the fibroblast-conditioned medium,moderately stimulatory activity
